Measured values from ChEMBL document CHEMBL4052659, “Synthesis, molecular docking, and biological activity of polyfluoroalkyl dihydroazolo[5,1-c][1,2,4]triazines as selective carboxylesterase inhibitors” (Bioorg Med Chem, 2017).
Activity calls are given as the source filed them. The rule behind the calls is not given here.

Key:
[1] = biological target: Acetylcholinesterase (Homo sapiens) (UniProt P22303); assay: Inhibition of human erythrocyte acetylcholinesterase at 20 uM using acetylthiocholine iodide as substrate preincubated for 10 mins followed by substrate addition by Ellman's method relative to control
[2] = biological target: Cholinesterase (Equus caballus) (UniProt P81908); assay: Inhibition of equine serum butyrylcholinesterase at 20 uM using butyrylthiocholine iodide as substrate preincubated for 10 mins followed by substrate addition by Ellman's method relative to control
Liver carboxylesterase [3] = biological target: T1, Liver carboxylesterase (Sus scrofa, UniProt Q29550)
T1 sequence (Q29550 whole entry): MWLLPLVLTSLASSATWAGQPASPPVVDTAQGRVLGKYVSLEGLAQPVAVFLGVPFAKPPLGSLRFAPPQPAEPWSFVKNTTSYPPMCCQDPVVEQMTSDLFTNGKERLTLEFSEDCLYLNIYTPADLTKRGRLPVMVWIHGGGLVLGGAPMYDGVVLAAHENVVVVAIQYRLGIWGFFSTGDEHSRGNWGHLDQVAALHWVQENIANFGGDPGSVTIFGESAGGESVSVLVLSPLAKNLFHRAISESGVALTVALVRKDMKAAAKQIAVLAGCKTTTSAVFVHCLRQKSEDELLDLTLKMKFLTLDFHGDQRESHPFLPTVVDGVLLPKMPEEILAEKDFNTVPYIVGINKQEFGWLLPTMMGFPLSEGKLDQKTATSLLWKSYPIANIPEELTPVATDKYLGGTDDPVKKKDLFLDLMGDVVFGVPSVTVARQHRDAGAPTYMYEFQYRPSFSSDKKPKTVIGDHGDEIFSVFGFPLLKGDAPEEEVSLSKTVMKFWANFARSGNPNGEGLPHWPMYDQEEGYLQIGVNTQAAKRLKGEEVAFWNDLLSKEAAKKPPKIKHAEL
Description: Inhibition of porcine liver carboxylesterase using 4-nitrophenol acetate as substrate preincubated for 10 mins followed by substrate addition by spectrophotometric analysis

Liver carboxylesterase [4] = biological target: T1, Liver carboxylesterase; assay: Competitive inhibition of porcine liver carboxylesterase using varying levels of 4-nitrophenol acetate as substrate preincubated for 10 mins followed by substrate addition by Lineweaver-Burk plot analysis
Liver carboxylesterase [5] = biological target: T1, Liver carboxylesterase; assay: Non-competitive inhibition of porcine liver carboxylesterase using varying levels of 4-nitrophenol acetate as substrate preincubated for 10 mins followed by substrate addition by Lineweaver-Burk plot analysis; conditions: pig
Liver carboxylesterase [6] = biological target: T1, Liver carboxylesterase; assay: Reversible mixed-type inhibition of porcine liver carboxylesterase at 5 to 20 uM using varying levels of 4-nitrophenol acetate as substrate preincubated for 10 mins followed by substrate addition by Lineweaver-Burk double-reciprocal plot analysis; conditions: pig
[7] = Acute toxicity in CD-1 mouse assessed as mouse survival up to 300 mg/kg, ip measured for 14 days; type: organism-based; conditions: in vivo
Liver carboxylesterase [8] = biological target: T1, Liver carboxylesterase; assay: Reversible mixed-type inhibition of porcine liver carboxylesterase at 0.5 to 2 uM using varying levels of 4-nitrophenol acetate as substrate preincubated for 10 mins followed by substrate addition by Lineweaver-Burk double-reciprocal plot analysis; conditions: pig
Liver carboxylesterase [9] = biological target: T1, Liver carboxylesterase; assay: Reversible mixed-type inhibition of porcine liver carboxylesterase at 0.1 to 0.6 uM using varying levels of 4-nitrophenol acetate as substrate preincubated for 10 mins followed by substrate addition by Lineweaver-Burk double-reciprocal plot analysis; conditions: pig
Liver carboxylesterase [10] = biological target: T1, Liver carboxylesterase; assay: in vitro; conditions: pig, porcine liver carboxylesterase, probe 4-nitrophenol acetate
Description: Inhibition of porcine liver carboxylesterase at 20 uM using 4-nitrophenol acetate as substrate preincubated for 10 mins followed by substrate addition by spectrophotometric analysis relative to control

Cholinesterase (Equus caballus), sequence (P81908 whole entry): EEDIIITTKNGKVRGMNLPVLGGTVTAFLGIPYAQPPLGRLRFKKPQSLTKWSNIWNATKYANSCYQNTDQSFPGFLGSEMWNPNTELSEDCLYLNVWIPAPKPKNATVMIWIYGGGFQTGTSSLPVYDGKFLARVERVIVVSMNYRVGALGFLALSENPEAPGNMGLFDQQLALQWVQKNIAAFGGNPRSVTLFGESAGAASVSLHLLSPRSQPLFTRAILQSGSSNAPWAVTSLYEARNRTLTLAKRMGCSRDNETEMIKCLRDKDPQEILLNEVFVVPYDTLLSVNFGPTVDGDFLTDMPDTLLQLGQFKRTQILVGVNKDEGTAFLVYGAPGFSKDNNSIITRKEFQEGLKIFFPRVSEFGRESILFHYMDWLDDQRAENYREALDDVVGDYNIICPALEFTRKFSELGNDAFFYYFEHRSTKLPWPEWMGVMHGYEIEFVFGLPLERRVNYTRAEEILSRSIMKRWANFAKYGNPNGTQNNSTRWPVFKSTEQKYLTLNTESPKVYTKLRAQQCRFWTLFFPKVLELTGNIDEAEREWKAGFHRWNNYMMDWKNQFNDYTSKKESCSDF
Acetylcholinesterase (Homo sapiens), sequence (P22303 whole entry): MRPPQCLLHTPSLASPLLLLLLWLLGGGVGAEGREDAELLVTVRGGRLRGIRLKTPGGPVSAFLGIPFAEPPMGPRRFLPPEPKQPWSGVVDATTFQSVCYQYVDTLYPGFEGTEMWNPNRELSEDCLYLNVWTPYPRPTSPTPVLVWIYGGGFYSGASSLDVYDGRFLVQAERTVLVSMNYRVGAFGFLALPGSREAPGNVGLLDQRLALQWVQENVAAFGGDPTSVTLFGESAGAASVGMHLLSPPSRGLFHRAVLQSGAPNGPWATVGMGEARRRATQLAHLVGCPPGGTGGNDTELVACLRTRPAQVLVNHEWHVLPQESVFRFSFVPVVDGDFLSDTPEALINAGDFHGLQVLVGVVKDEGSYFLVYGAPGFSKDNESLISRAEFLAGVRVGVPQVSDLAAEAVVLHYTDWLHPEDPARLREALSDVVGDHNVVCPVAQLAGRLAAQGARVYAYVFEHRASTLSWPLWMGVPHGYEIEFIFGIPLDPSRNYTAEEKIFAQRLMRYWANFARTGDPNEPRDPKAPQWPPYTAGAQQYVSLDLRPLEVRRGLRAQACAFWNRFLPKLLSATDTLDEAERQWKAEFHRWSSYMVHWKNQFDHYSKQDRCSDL

Compound	inhibition [1]	inhibition [2]	IC50 (Liver carboxylesterase [3]) [µM]	Ki (Liver carboxylesterase [4]) [µM]	alphaKi (Liver carboxylesterase [5]) [µM]	inhibition (INH) (Liver carboxylesterase [6])	survival at 336 h [7] [%]	inhibition (INH) (Liver carboxylesterase [8])	inhibition (INH) (Liver carboxylesterase [9])	inhibition at 20 µM (Liver carboxylesterase [10]) [%]
O=[N+]([O-])c1ccc(OP(=O)(O)Oc2ccc([N+](=O)[O-])cc2)cc1	inactive	inactive	1.8							
CCOC(=O)C1=NNc2ncnn2C1(O)C(F)(F)F (stereo not drawn)	inactive	inactive	3.6							
O=C(C1=NNc2nnnn2C1(O)C(F)(F)F)c1ccccc1 (stereo not drawn)	inactive	inactive	17.2							
CCOC(=O)C1=NNc2nnnn2C1(O)C(F)(F)C(F)(F)C(F)(F)C(F)(F)F (stereo not drawn)	inactive	inactive	0.83							
COC(=O)C1=NNc2nnnn2C1(O)C(F)(F)C(F)(F)C(F)(F)F (stereo not drawn)	inactive	inactive	3.29							
CCOC(=O)C1=NNc2nnnn2C1(O)C(F)(F)F (stereo not drawn)	inactive	inactive	13.6							
CCOC(=O)C1=NNc2cc(-c3ccccc3)nn2C1(O)C(F)(F)F (stereo not drawn)	3.8%	inactive	16.4							
COC(=O)C1=NNc2ncnn2C1(O)C(F)(F)C(F)(F)C(F)(F)C(F)(F)F (stereo not drawn)	inactive	inactive	10.7	6.51	23.4	Active				
COC(=O)C1=NNc2nnnn2C1(O)C(F)(F)C(F)F (stereo not drawn)	inactive	inactive	12.3							
COC(=O)C1=NNc2nnnn2C1(O)C(F)(F)C(F)(F)C(F)(F)C(F)(F)F (stereo not drawn)	inactive	inactive	1.31	0.57	1.74		100	Active		
O=C(C1=NNc2ncnn2C1(O)C(F)(F)C(F)(F)C(F)(F)F)c1ccccc1 (stereo not drawn)	inactive	inactive	53.4							
CCOC(=O)c1nnc(N)nc1C(F)(F)F	inactive	inactive	3.9							
COC(=O)C1=NNc2nnnn2C1(O)C(F)(F)F (stereo not drawn)	inactive	4.1%	58.6							
CCOC(=O)C1=NNc2c(C(=O)OCC)ncn2C1(O)C(F)(F)F (stereo not drawn)	inactive	inactive	34.4							
COC(=O)C1=NNc2cc(-c3ccccc3)nn2C1(O)C(F)(F)C(F)(F)C(F)(F)C(F)(F)F (stereo not drawn)	11.7%	11.6%	0.96	0.7	1.6					
CCOC(=O)C1=NNc2ncnn2C1(O)C(F)(F)C(F)(F)C(F)(F)C(F)(F)F (stereo not drawn)	inactive	3.7%	0.98							
CCOC(=O)C1=NNc2cc(-c3ccccc3)nn2C1(O)C(F)(F)C(F)(F)C(F)(F)C(F)(F)F (stereo not drawn)	inactive	16.2%	0.46	0.23	0.69		100		Active	
CCOC(=O)C1=NNc2cc(C)nn2C1(O)C(F)(F)C(F)(F)C(F)(F)C(F)(F)F (stereo not drawn)	3%	6%	1.44				100			
CCOC(=O)C1=NNc2c(C(=O)OCC)cnn2C1(O)C(F)(F)F (stereo not drawn)	inactive	8.5%								9.3
CCOC(=O)C1=NNc2cc(C)nn2C1(O)C(F)(F)F (stereo not drawn)	inactive	7.3%	48.3							
CCOC(=O)C1=NNc2cc(-c3ccccc3)nn2C1(O)C(F)(F)C(F)(F)F (stereo not drawn)	13.6%	22%	3.91	1.61	3.52		100			
CCOC(=O)c1cnn2c1NN=C(C(=O)OC)C2(O)C(F)(F)C(F)(F)C(F)(F)F (stereo not drawn)	inactive	inactive	38.2							
